According to patent publication US20240092741A1, “COMPOSITION FOR PREVENTION OR TREATMENT OF NEUROFIBROMATOSIS TYPE 2 SYNDROME” (PRG S&TECH INC., priority 2021, published 2024):
Peptide text beside a SMILES is read from it. * marks the point of attachment. Cbz = O=C(OCc1ccccc1)*

Legend:
HEI-193 cells [1] = experiment: Western blotting of marker proteins in HEI-193 cells; format: cell-based, human; conditions: HEI-193 cells pretreated 6 h with leptomycin B 2 ng/ml or MG132 5 μM, then 10 μM compounds 24 h (FIGS. 14F, 14G)
Description: (§1) Cells were harvested and lysed using RIPA buffer [50 mM Tris-Cl, pH 7.5, 150 mM NaCl, 1% NP-40, 0.1% SDS, and 10% sodium deoxycholate] to examine cellular signaling. Protein concentrations in samples were measured using Bio-Rad (Hercules, CA, USA) protein assay kits and BSA standards. The samples (20 μg protein per lane) were separated by sodium dodecyl sulfate-polyacrylamide gel electrophoresis (SDS-PAGE), transferred to Immobilon-P^SQ transfer membranes (Millipore Corp., MA, USA), which were then cultured with 3% skim milk-containing TBS-T buffer (Tris-HCl-based buffer containing 20 mM Tris pH 7.6, 150 mM NaCl, and 0.05% Tween 20) for 1 hour at room temperature and then reacted with primary antibody in TBS-T overnight at 4° C. The membranes were then washed and reacted with secondary horseradish peroxidase (HRP)-conjugated antibodies [goat anti-mouse, goat anti-rabbit, and mouse anti-goat antibodies (Pierce, Thermo Fisher Scientific, Inc., Rockford, IL, USA)] in TBS-T at room temperature for 2 hours. The blots were detected using an HRP-conjugated secondary antibody using ECL kit (Intron, Seoul, Korea).

normal fibroblasts = experiment: MTT cell viability assay in normal fibroblasts; format: cell-based, human; conditions: 10 μM, 48 h (FIG. 3)
Description: (§2) To measure cell viability, MTT (3-(4,5-dimethylthiazol-2-yl)-2,5-diphenyltetrazolium bromide) assay was used. In other words, the cells were seeded in 96-well plates and treated with the indicated chemicals for a predetermined time. After removing the medium, 200 μl of MTT solution (0.5 mg/ml) dissolved in PBS was added to each well. Plates were then cultured at 37° C. for 4 hours, the MTT solution was removed, the precipitated substances were dissolved using a solution (DMSO:ethanol=1:1), and an amount of formazan dye produced was quantified by measuring the absorbance at 560 nm using an ELISA microplate reader (Thermo Fisher Scientific, MA, USA).

HEI-193 cells [2] = experiment: MTT cell viability assay in HEI-193 cells; format: cell-based, human; conditions: 10 μM, 48 h
Description: as §2

[3] = molecular target: T1, interaction between TβR1 and RKIP (Homo sapiens, UniProt P30086+P36897); experiment: GST-pull down assay of TβR1-RKIP interaction; format: binding; conditions: GST-RKIP beads with TβR1-transfected HEK293 lysates, 5 and 10 μM, 2 h (FIG. 5B)
T1 construct: host or cells: HEK293 (TβR1 lysate)
Description: For protein-protein interaction analysis, glutathione S-transferase (GST)-pull down assay was performed. For GST-pull down, agarose-bead-conjugated GST-RKIP recombinant protein was reacted with FLAG-tagged TβR1-transfected HEK 293 cell lysates in PBS buffer at 4° C. for 1 hour. Immunoprecipitation (IP) assay was performed by reacting with FLAG-tagged TβR1- or HA-tagged RKIP-transfected HEI-193 cell lysates in PBS buffer. Whole lysates were reacted with appropriate primary antibodies at 4° C. for 2 hours and with agarose-bead-conjugated protein A/G (Invitrogen, Carlsbad, CA, USA) for 2 hours. After centrifugation, the precipitates were washed twice with RIPA buffer and subjected to SDS-PAGE and western blotting analysis.

RKIP = RKIP expression by Western blotting in HEI-193 cells; format: cell-based, human; conditions: compounds 10 μM, 24 h (FIG. 1A) or 72 h (FIG. 2), Western blot
Description: as §1
Because RKIP degradation in NF2 cells is clearly known (Mol Cancer Ther 17, 2271-2284, 2018), after first treating 260 novel synthetic compounds, RKIP expression was measured in HEI-193, a human NF2 cell line.

HEI-193 cells [4] = experiment: Tumorsphere formation assay, HEI-193 cells; format: cell-based, human; conditions: HEI-193 cells, 10 μM, DMEM/F12 medium
Description: (§3) For tumorsphere formation assay, Hei-193 or mouse schwannoma cells (3×10^6 cells/plate) were cultured in DMEM/F12 medium (supplemented with 2% B27 and 40 ng/ml bFGF) and added with the indicated chemicals on non-coated plates for indicated days.

SOX2 = SOX2 localization by IF and cell fractionation in HEI-193 cells; format: cell-based, human; conditions: 2 μM, 24 h, IF and cell fractionation (FIGS. 15C, 15D)
Description: Cells were seeded on cover glass, washed with PBS, fixed with 4% paraformaldehyde (PFA) for 30 minutes at room temperature, and then permeabilized with 0.2% Triton X-100 at room temperature for 5 minutes. After treatment with blocking buffer [3% goat serum diluted in PBS] for 1 hour, cells were reacted with the specified antibody in the blocking buffer overnight at 4° C. Finally, the cells were reacted with secondary antibodies conjugated with FITC or rhodamine at 4° C. for 7 hours. The nuclei were stained with DAPI at room temperature for 10 minutes. After the cells were washed 3 times with PBS, the cover glass was mounted with a mounting solution (H-5501, Vector Laboratories, Cambridgeshire, UK) and immunofluorescence signals were detected using a fluorescence microscopy (Zeiss, Jena, Germany).

mouse schwannoma cells [5] = experiment: MTT cell viability assay in mouse schwannoma cells; format: cell-based; conditions: mouse schwannoma (NF2 mouse) cells, 10 μM, 48 h
Description: as §2

mouse schwannoma cells [6] = experiment: Tumorsphere formation assay, mouse schwannoma cells; format: cell-based; conditions: 10 μM, DMEM/F12 medium
Description: as §3

schwannoma = conditions: Mol Cancer Ther 17, 2271-2284, 2018; cited from earlier work
TGF-β signaling = experiment: Smad2/3 phosphorylation after TGF-β1 in HEI-193 cells; format: cell-based, human; conditions: 10 μM, TGF-β1 2 ng/ml added after 12 h for 12 h (FIG. 5D)
Description: as §1

T1 sequence (P30086 whole entry): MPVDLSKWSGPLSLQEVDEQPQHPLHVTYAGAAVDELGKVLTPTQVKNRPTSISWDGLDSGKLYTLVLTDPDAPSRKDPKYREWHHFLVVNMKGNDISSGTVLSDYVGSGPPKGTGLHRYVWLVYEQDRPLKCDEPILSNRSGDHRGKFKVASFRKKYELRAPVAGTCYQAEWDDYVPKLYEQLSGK
T1 sequence (P36897 34-503): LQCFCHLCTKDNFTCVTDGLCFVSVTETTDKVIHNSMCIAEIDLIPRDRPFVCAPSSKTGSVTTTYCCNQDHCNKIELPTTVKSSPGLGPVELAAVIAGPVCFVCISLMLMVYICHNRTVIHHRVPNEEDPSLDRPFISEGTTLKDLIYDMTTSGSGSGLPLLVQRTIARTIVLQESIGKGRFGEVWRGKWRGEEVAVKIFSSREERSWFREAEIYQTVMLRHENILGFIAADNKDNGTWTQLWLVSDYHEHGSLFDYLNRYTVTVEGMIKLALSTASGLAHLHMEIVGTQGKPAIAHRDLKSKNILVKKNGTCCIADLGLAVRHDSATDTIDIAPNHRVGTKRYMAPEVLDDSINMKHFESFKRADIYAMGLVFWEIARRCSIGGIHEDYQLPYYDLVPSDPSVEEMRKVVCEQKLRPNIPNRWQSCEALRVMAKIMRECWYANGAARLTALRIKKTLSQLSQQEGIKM

With `CC(C)C[C@@H](C=O)NC(=O)[C@H](CC(C)C)NC(=O)[C@H](CC(C)C)NC(=O)OCc1ccccc1` [MG312, reference compound] (Cbz-Leu-Leu-Leu-aldehyde) the “PRG-N-01/TEW7197-induced reduction in SOX2” value (HEI-193 cells [1]) was “blocked”.
For `CCN(CC)CCOc1ccc(-c2nnn(Cc3ccc(OCc4ccccc4)cc3)c2NC(=O)OC(C)(C)C)cc1` [NF-08001], the “cytotoxicity in normal cells (MTT)” value (normal fibroblasts) was “exhibited normal cytotoxicity”, the “cell viability (MTT)” value (HEI-193 cells [2]) was “anti-proliferating effect” and the “interaction between TβR1 and RKIP” value [3] was “inhibitory effect”. The RKIP expression (RKIP) was “induction of RKIP”.
In the case of `Cc1cccc(-c2[nH]c(CNc3ccccc3F)nc2-c2ccc3ncnn3c2)n1` [TEW7197, N-((4-([1,2,4]triazolo[1,5-a]pyridin-6-yl)-5-(6-methylpyridin-2-yl)-1H-imidazol-2-yl)methyl)-2-fluoroaniline, reference compound], the tumorsphere formation (HEI-193 cells [4]) is reported as “weak inhibitory effect”, the “localization of nuclear SOX2” value (SOX2) is reported as “moved to the cytosol” and the “cell viability (MTT)” value (mouse schwannoma cells [5]) is reported as “suppressed cell viability”. The tumorsphere formation (mouse schwannoma cells [6]) was “weak inhibitory effect”, the “schwannoma in a mouse model with NF2 syndrome” value (schwannoma) was “inhibited schwannoma” and the “Smad2/3 phosphorylation in response to TGF-β” value (TGF-β signaling) was “TGF-β signal inhibition”. For the same molecule, the “cell viability (MTT)” value (HEI-193 cells [2]) was “suppressed cell viability”.
For `CCC(=C/[C@H](C)C/C=C/C(C)=C/[C@@H](C)C(=O)[C@@H](C)[C@H](O)[C@@H](C)C/C(C)=C/C(=O)O)/C=C/[C@@H]1OC(=O)C=C[C@@H]1C` [leptomycin B, reference compound], the “PRG-N-01/TEW7197-induced reduction in SOX2” value (HEI-193 cells [1]) was “blocked”.
